In patent publication US20200281202A1 (priority 2017, published 2020):

What was measured:
Phytophthora infestans [1] = test: microbe, parasite or virus in culture; assay type: cell-based; conditions: for inhibition of growth at 30 ppm: Phytophthora infestans, 168 h, read-out: control (radial growth) compared to the untreated check; for control (radial growth) compared to the untreated check: 30 ppm in Rye Agar medium, seven days at 18° C.
Phytophthora infestans [2] = test: whole plant or invertebrate; assay type: in vivo; conditions: for pest or weed control at 50 ppm: Phytophthora infestans, in Solanum lycopersicum, read-out: control (disease severity) compared to the untreated check; for control (disease severity) compared to the untreated check: 50 ppm spray, preventive, Tomato plants inoculated one day after treatment
Plasmopara viticola = Plasmopara viticola test in grape, preventive; assay type: in vivo; conditions: 50 ppm spray, grape seedlings inoculated one day after treatment; for pest or weed control at 50 ppm: Plasmopara viticola, read-out: control (disease severity) compared to the untreated check
Procedure: Example B: Plasmopara viticola Test in Grape
Compounds were dissolved in 2% DMSO/Acetone & then mixed with water to calibrated spray volume of 50 ml. This 50 ml spray solution was poured into the spray bottles for further applications.
To test the preventive activity of compounds, five week old healthy grape seedlings raised in the greenhouse were sprayed with active compound preparation at the stated application rates inside the spray cabinets using hallow-cone nozzles. One day after treatment, the plants were inoculated with inoculum suspension (Cold sterile water) containing 6×10^6 Plasmopara viticola inoculum. The inoculated plants were then kept in greenhouse chamber at 18-21° C. temperature and 95-100% relative humidity for disease expression. Compounds
A visual assessment of compound's performance was carried by rating the disease severity (0-100% scale) on treated plants on 3, 7, 10 and 15 days after application. Efficacy (% control) of the compounds was calculated by comparing the disease rating in the treatment with untreated control. The sprayed plants were also assessed for compound's phytotoxic effects by recording symptoms like necrosis, chlorosis and stunting.

With `Cn1nc(C(F)(F)F)cc1OCC(=O)N1CCC(c2nc(C3=NOC(c4c(Cl)cc(Cl)cc4Cl)C3)cs2)CC1` (centres unmarked) [Compound 10, 2-((1-methyl-3-(trifluoromethyl)-1H-pyrazol-5-yl)oxy)-1-(4-(4-(5-(2,4,6-trichlorophenyl)-4,5-dihydroisoxazol-3-yl)thiazol-2-yl)piperidin-1-yl)ethan-1-one] the inhibition of growth at 30 ppm (Phytophthora infestans [1]) was 70%, the pest or weed control at 50 ppm (Phytophthora infestans [2]) was 90% and the pest or weed control at 50 ppm (Plasmopara viticola) was 90%.
With `Cn1nc(OCC(=O)N2CCC(c3nc(C4=NOC(c5c(Cl)cccc5Cl)C4)cs3)CC2)cc1C(F)(F)F` (centres unmarked) [Compound 15, 1-(4-(4-(5-(2,6-dichlorophenyl)-4,5-dihydroisoxazol-3-yl)thiazol-2-yl)piperidin-1-yl)-2-((1-methyl-5-(trifluoromethyl)-1H-pyrazol-3-yl)oxy)ethan-1-one] the inhibition of growth at 30 ppm (Phytophthora infestans [1]) was 70%, the pest or weed control at 50 ppm (Phytophthora infestans [2]) was 90% and the pest or weed control at 50 ppm (Plasmopara viticola) was 90%.
With `O=C(COc1ncccc1C(F)(F)F)N1CCC(c2nc(C3=NOC(c4c(Cl)cccc4Cl)C3)cs2)CC1` (centres unmarked) [Compound 27] the inhibition of growth at 30 ppm (Phytophthora infestans [1]) was 70%, the pest or weed control at 50 ppm (Phytophthora infestans [2]) was 90% and the pest or weed control at 50 ppm (Plasmopara viticola) was 90%.
With `CS(=O)(=O)Oc1cccc(Cl)c1C1CC(c2csc(C3CCN(C(=O)COc4ncccc4C(F)(F)F)CC3)n2)=NO1` (centres unmarked) [Compound 28, 3-chloro-2-(3-(2-(1-(2-((3-(trifluoromethyl)pyridin-2-yl)oxy)acetyl)piperidin-4-yl)thiazol-4-yl)-4,5-dihydroisoxazol-5-yl)phenyl methanesulfonate] the inhibition of growth at 30 ppm (Phytophthora infestans [1]) was 70% and the pest or weed control at 50 ppm (Phytophthora infestans [2]) was 90%.
`O=C(COc1ncccc1C(F)(F)F)N1CCC(c2nc(C3=NOC(c4c(F)cccc4F)C3)cs2)CC1` (centres unmarked) [Compound 29, 1-(4-(4-(5-(2,6-difluorophenyl)-4,5-dihydroisoxazol-3-yl)thiazol-2-yl)piperidin-1-yl)-2-((3-(trifluoromethyl)pyridin-2-yl)oxy) ethan-1-one] gave an inhibition of growth at 30 ppm (Phytophthora infestans [1]) of 70%, a pest or weed control at 50 ppm (Phytophthora infestans [2]) of 90% and a pest or weed control at 50 ppm (Plasmopara viticola) of 90%.
Work on `O=C(COc1ncccc1C(F)(F)F)N1CCC(c2nc(C3=NOC(c4c(Cl)cc(Cl)cc4Cl)C3)cs2)CC1` (centres unmarked) [Compound 30, 1-(4-(4-(5-(2,4,6-trichlorophenyl)-4,5-dihydroisoxazol-3-yl)thiazol-2-yl)piperidin-1-yl)-2-((3-(trifluoromethyl)pyridin-2-yl)oxy)ethan-1-one] yielded an inhibition of growth at 30 ppm (Phytophthora infestans [1]) of 70%, a pest or weed control at 50 ppm (Phytophthora infestans [2]) of 90% and a pest or weed control at 50 ppm (Plasmopara viticola) of 90%.
For `O=C(COc1ncc(Cl)cc1C(F)(F)F)N1CCC(c2nc(C3=NOC(c4c(Cl)cccc4Cl)C3)cs2)CC1` (centres unmarked) [Compound 31, 2-((5-chloro-3-(trifluoromethyl)pyridin-2-yl)oxy)-1-(4-(4-(5-(2,6-dichlorophenyl)-4,5-dihydroisoxazol-3-yl)thiazol-2-yl)piperidin-1-yl)ethan-1-one], the inhibition of growth at 30 ppm (Phytophthora infestans [1]) was 70%, the pest or weed control at 50 ppm (Phytophthora infestans [2]) was 90% and the pest or weed control at 50 ppm (Plasmopara viticola) was 90%.
`CS(=O)(=O)Oc1cccc(Cl)c1C1CC(c2csc(C3CCN(C(=O)COc4ncc(Cl)cc4C(F)(F)F)CC3)n2)=NO1` (centres unmarked) [Compound 32, 3-chloro-2-(3-(2-(1-(2-((5-chloro-3-(trifluoromethyl)pyridin-2-yl)oxy)acetyl)piperidin-4-yl)thiazol-4-yl)-4,5-dihydroisoxazol-5-yl)phenyl methanesulfonate] gave an inhibition of growth at 30 ppm (Phytophthora infestans [1]) of 70%, a pest or weed control at 50 ppm (Phytophthora infestans [2]) of 90% and a pest or weed control at 50 ppm (Plasmopara viticola) of 90%.
`O=C(COc1ncc(Cl)cc1C(F)(F)F)N1CCC(c2nc(C3=NOC(c4c(F)cccc4F)C3)cs2)CC1` (centres unmarked) [Compound 33] showed an inhibition of growth at 30 ppm (Phytophthora infestans [1]) of 70%, a pest or weed control at 50 ppm (Phytophthora infestans [2]) of 90% and a pest or weed control at 50 ppm (Plasmopara viticola) of 90%.
In the case of `O=C(COc1ncc(Cl)cc1C(F)(F)F)N1CCC(c2nc(C3=NOC(c4c(Cl)cc(Cl)cc4Cl)C3)cs2)CC1` (centres unmarked) [Compound 34], the inhibition of growth at 30 ppm (Phytophthora infestans [1]) is reported as 70%, the pest or weed control at 50 ppm (Phytophthora infestans [2]) is reported as 90% and the pest or weed control at 50 ppm (Plasmopara viticola) is reported as 90%.
`O=C(COc1ncc(Br)cc1C(F)(F)F)N1CCC(c2nc(C3=NOC(c4c(Cl)cccc4Cl)C3)cs2)CC1` (centres unmarked) [Compound 35, 2-((5-bromo-3-(trifluoromethyl)pyridin-2-yl)oxy)-1-(4-(4-(5-(2,6-dichlorophenyl)-4,5-dihydroisoxazol-3-yl)thiazol-2-yl)piperidin-1-yl)ethan-1-one] gave an inhibition of growth at 30 ppm (Phytophthora infestans [1]) of 70%, a pest or weed control at 50 ppm (Phytophthora infestans [2]) of 90% and a pest or weed control at 50 ppm (Plasmopara viticola) of 90%.
Work on `CS(=O)(=O)Oc1cccc(Cl)c1C1CC(c2csc(C3CCN(C(=O)COc4ncc(Br)cc4C(F)(F)F)CC3)n2)=NO1` (centres unmarked) [Compound 36] yielded an inhibition of growth at 30 ppm (Phytophthora infestans [1]) of 70%, a pest or weed control at 50 ppm (Phytophthora infestans [2]) of 90% and a pest or weed control at 50 ppm (Plasmopara viticola) of 90%.
Work on `O=C(COc1ncc(Br)cc1C(F)(F)F)N1CCC(c2nc(C3=NOC(c4c(F)cccc4F)C3)cs2)CC1` (centres unmarked) [Compound 37, 2-((5-bromo-3-(trifluoromethyl)pyridin-2-yl)oxy)-1-(4-(4-(5-(2,6-difluorophenyl)-4,5-dihydroisoxazol-3-yl)thiazol-2-yl)piperidin-1-yl)ethan-1-one] yielded an inhibition of growth at 30 ppm (Phytophthora infestans [1]) of 70%, a pest or weed control at 50 ppm (Phytophthora infestans [2]) of 90% and a pest or weed control at 50 ppm (Plasmopara viticola) of 90%.
`O=C(COc1ncc(Br)cc1C(F)(F)F)N1CCC(c2nc(C3=NOC(c4c(Cl)cc(Cl)cc4Cl)C3)cs2)CC1` (centres unmarked) [Compound 38] was tested, and the “control (radial growth) compared to the untreated check” value (Phytophthora infestans [1]) was 70%, the “control (disease severity) compared to the untreated check” value (Phytophthora infestans [2]) was 90% and the “control (disease severity) compared to the untreated check” value (Plasmopara viticola) was 90%.
For `Cc1ccc(C(F)(F)F)c(OCC(=O)N2CCC(c3nc(C4=NOC(c5c(Cl)cc(Cl)cc5Cl)C4)cs3)CC2)n1` (centres unmarked) [Compound 39, 2-((6-methyl-3-(trifluoromethyl)pyridin-2-yl)oxy)-1-(4-(4-(5-(2,4,6-trichlorophenyl)-4,5-dihydroisoxazol-3-yl)thiazol-2-yl)piperidin-1-yl)ethan-1-one], the inhibition of growth at 30 ppm (Phytophthora infestans [1]) was 70%, the pest or weed control at 50 ppm (Phytophthora infestans [2]) was 90% and the pest or weed control at 50 ppm (Plasmopara viticola) was 90%.
Work on `Cc1ccc(C(F)(F)F)c(OCC(=O)N2CCC(c3nc(C4=NOC(c5c(F)cccc5F)C4)cs3)CC2)n1` (centres unmarked) [Compound 40, 1-(4-(4-(5-(2,6-difluorophenyl)-4,5-dihydroisoxazol-3-yl)thiazol-2-yl)piperidin-1-yl)-2-((6-methyl-3-(trifluoromethyl)pyridin-2-yl)oxy)ethan-1-one] yielded an inhibition of growth at 30 ppm (Phytophthora infestans [1]) of 70% and a pest or weed control at 50 ppm (Phytophthora infestans [2]) of 90%.
With `Cc1ccc(C(F)(F)F)c(OCC(=O)N2CCC(c3nc(C4=NOC(c5c(Cl)cccc5Cl)C4)cs3)CC2)n1` (centres unmarked) [Compound 41, 1-(4-(4-(5-(2,6-dichlorophenyl)-4,5-dihydroisoxazol-3-yl)thiazol-2-yl)piperidin-1-yl)-2-((6-methyl-3-(trifluoromethyl)pyridin-2-yl)oxy)ethan-1-one] the inhibition of growth at 30 ppm (Phytophthora infestans [1]) was 70%, the pest or weed control at 50 ppm (Phytophthora infestans [2]) was 90% and the pest or weed control at 50 ppm (Plasmopara viticola) was 90%.
`Cc1ccc(C(F)(F)F)c(OCC(=O)N2CCC(c3nc(C4=NOC(c5c(Cl)cccc5OS(C)(=O)=O)C4)cs3)CC2)n1` (centres unmarked) [Compound 42, 3-chloro-2-(3-(2-(1-(2-((6-methyl-3-(trifluoromethyl)pyridin-2-yl)oxy)acetyl)piperidin-4-yl)thiazol-4-yl)-4,5-dihydroisoxazol-5-yl)phenyl methanesulfonate] gave an inhibition of growth at 30 ppm (Phytophthora infestans [1]) of 70%, a pest or weed control at 50 ppm (Phytophthora infestans [2]) of 90% and a pest or weed control at 50 ppm (Plasmopara viticola) of 90%.
For `CS(=O)(=O)Oc1cccc(Cl)c1C1CC(c2csc(C3CCN(C(=O)COc4ncc(C(F)(F)F)cc4Br)CC3)n2)=NO1` (centres unmarked) [Compound 52], the inhibition of growth at 30 ppm (Phytophthora infestans [1]) was 70%, the pest or weed control at 50 ppm (Phytophthora infestans [2]) was 90% and the pest or weed control at 50 ppm (Plasmopara viticola) was 90%.
`CS(=O)(=O)Oc1cccc(Cl)c1C1CC(c2csc(C3CCN(C(=O)CSc4ncccc4C(F)(F)F)CC3)n2)=NO1` (centres unmarked) [Compound 61, 3-chloro-2-(3-(2-(1-(2-((3-(trifluoromethyl)pyridin-2-yl)thio)acetyl)piperidin-4-yl)thiazol-4-yl)-4,5-dihydroisoxazol-5-yl)phenyl methanesulfonate] gave an inhibition of growth at 30 ppm (Phytophthora infestans [1]) of 70%, a pest or weed control at 50 ppm (Phytophthora infestans [2]) of 90% and a pest or weed control at 50 ppm (Plasmopara viticola) of 90%.
In the case of `O=C(CSc1ncccc1C(F)(F)F)N1CCC(c2nc(C3=NOC(c4c(F)cccc4F)C3)cs2)CC1` (centres unmarked) [Compound 62, 1-(4-(4-(5-(2,6-difluorophenyl)-4,5-dihydroisoxazol-3-yl)thiazol-2-yl)piperidin-1-yl)-2-((3-(trifluoromethyl)pyridin-2-yl)thio)ethan-1-one], the inhibition of growth at 30 ppm (Phytophthora infestans [1]) is reported as 70%, the pest or weed control at 50 ppm (Phytophthora infestans [2]) is reported as 90% and the pest or weed control at 50 ppm (Plasmopara viticola) is reported as 90%.
With `COc1ccc(C2CC(c3csc(C4CCN(C(=O)COc5ncc(Cl)cc5C(F)(F)F)CC4)n3)=NO2)cc1` (centres unmarked) [Compound 67] the “control (radial growth) compared to the untreated check” value (Phytophthora infestans [1]) was 70% and the “control (disease severity) compared to the untreated check” value (Phytophthora infestans [2]) was 90%.
For `CS(=O)(=O)Oc1cccc2c1COC(c1csc(C3CCN(C(=O)COc4ncccc4C(F)(F)F)CC3)n1)OC2` (centres unmarked) [Compound 91, 3-(2-(1-(2-((3-(trifluoromethyl)pyridin-2-yl)oxy)acetyl)piperidin-4-yl)thiazol-4-yl)-1,5-dihydrobenzo[e][1,3]dioxepin-6-yl methanesulfonate], the inhibition of growth at 30 ppm (Phytophthora infestans [1]) was 70%.
In the case of `Cc1ccc(C(F)(F)F)c(OCC(=O)N2CCC(c3nc(C4OCc5cccc(OS(C)(=O)=O)c5CO4)cs3)CC2)n1` (centres unmarked) [Compound 92, 3-(2-(1-(2-((6-methyl-3-(trifluoromethyl)pyridin-2-yl)oxy)acetyl)piperidin-4-yl)thiazol-4-yl)-1,5-dihydrobenzo[e][1,3]dioxepin-6-yl methanesulfonate], the inhibition of growth at 30 ppm (Phytophthora infestans [1]) is reported as 70%.
